Data published in ChEMBL document CHEMBL4177529, “Penicilones A-D, Anti-MRSA Azaphilones from the Marine-Derived Fungus Penicillium janthinellum HK1-6” (2017).
In brackets after ≈: the same amount, converted by molar mass.

Assays:
Enterococcus faecalis = assay: microbe, parasite or virus in culture; assay type: functional; settings: ATCC 51299
Description: Antibacterial activity against vancomycin-susceptible Enterococcus faecalis ATCC 51299 by XTT assay

Enterococcus faecium = assay: Antibacterial activity against vancomycin-susceptible Enterococcus faecium ATCC 35667 by XTT assay
Escherichia coli = assay: Antibacterial activity against Escherichia coli ATCC 25922 by XTT assay; assay type: functional
Staphylococcus aureus [1] = assay: Antibacterial activity against methicillin-susceptible Staphylococcus aureus ATCC 25923 by XTT assay
Staphylococcus aureus [2] = assay: Antibacterial activity against methicillin-resistant Staphylococcus aureus ATCC 43300 by XTT assay
Staphylococcus aureus [3] = assay: Antibacterial activity against methicillin-susceptible Staphylococcus aureus ATCC 29213 by XTT assay
Staphylococcus aureus [4] = assay: Antibacterial activity against methicillin-resistant Staphylococcus aureus ATCC 33591 by XTT assay

SMILES | MIC (Enterococcus faecalis) [µg/mL] | MIC (Enterococcus faecium) [µg/mL] | MIC (Escherichia coli) [µg/mL] | MIC (Staphylococcus aureus [1]) [µg/mL] | MIC (Staphylococcus aureus [2]) [µg/mL] | MIC (Staphylococcus aureus [3]) [µg/mL] | MIC (Staphylococcus aureus [4]) [µg/mL]
CN[C@H](CC(C)C)C(=O)N[C@H]1C(=O)N[C@@H](CC(N)=O)C(=O)N[C@H]2C(=O)N[C@H]3C(=O)N[C@H](C(=O)N[C@H](C(=O)O)c4cc(O)cc(O)c4-c4cc3ccc4O)[C@H](O)c3ccc(c(Cl)c3)Oc3cc2cc(c3O[C@@H]2O[C@H](CO)[C@@H](O)[C@H](O)[C@H]2O[C@H]2C[C@](C)(N)[C@H](O)[C@H](C)O2)Oc2ccc(cc2Cl)[C@H]1O.Cl [VANCOMYCIN HYDROCHLORIDE] | 6.25 | 0.39 | > 100 | 1.56 | 0.39 | 0.39 | 0.78
CCCCCCC(C)/C=C(\C)C(=O)O[C@@]1(C)C(=O)C2=COC(c3c(C)cccc3O)=CC2=C(Cl)C1=O (stereo partly specified) | 6.25 (≈ 12.2 µM) | 12.5 (≈ 24.4 µM) | > 50 | 12.5 (≈ 24.4 µM) | 6.25 (≈ 12.2 µM) | 3.13 (≈ 6.1 µM) | 6.25 (≈ 12.2 µM)
CCCCCCC(C)/C=C(\C)C(=O)O[C@@]1(C)C(=O)C2=COC(C3=C(C)CC(O)CC3=O)=CC2=C(Cl)C1=O (stereo partly specified) | 12.5 (≈ 23.5 µM) | 12.5 (≈ 23.5 µM) | > 50 | 12.5 (≈ 23.5 µM) | 6.25 (≈ 11.8 µM) | 6.25 (≈ 11.8 µM) | 6.25 (≈ 11.8 µM)
Cc1onc(-c2ccccc2)c1C(=O)N[C@@H]1C(=O)N2[C@@H]1SC(C)(C)[C@@H]2C(=O)[O-].[Na+] | 50 | > 100 | > 100 | 0.78 | > 100 | 3.13 | > 100
CCCCCCC(C)/C=C(\C)C(=O)O[C@@]1(C)C(=O)C=C2C=C(c3c(C)cccc3O)OC=C2C1=O (stereo partly specified) | 3.13 (≈ 6.54 µM) | 3.13 (≈ 6.54 µM) | > 50 | 3.13 (≈ 6.54 µM) | 3.13 (≈ 6.54 µM) | 3.13 (≈ 6.54 µM) | 3.13 (≈ 6.54 µM)
CCCCCCC(C)/C=C(\C)C(=O)O[C@@]1(C)C(=O)C=C2C=C(C3=C(C)C[C@@H](O)CC3=O)OC=C2C1=O (stereo partly specified) | > 50 | > 50 | > 50 | > 50 | > 50 | > 50 | > 50
Cc1cccc(O)c1C1=CC2=CC(=O)[C@](C)(O)C(=O)C2=CO1 | > 50 | > 50 | > 50 | > 50 | > 50 | > 50 | > 50
Cc1cccc(O)c1C1=CC2=C(Cl)C(=O)[C@@](C)(O)C(=O)C2=CO1 | 50 (≈ 150 µM) | 50 (≈ 150 µM) | > 50 | 25 (≈ 75.1 µM) | > 50 | > 50 | 50 (≈ 150 µM)
